This is an account of results in US8609661B2, “Pyrimido-pyrrolo-quinoxalinedione inhibitors of cystic fibrosis transmembrane conductance regulator protein and uses therefor” (The Regents of the University of California, priority 2009, dated 2013).

SMILES strings stand for the structures. pIC50: −log10 of the molar value. Read-outs that look alike come from different tables or passages of the source.

For the assay, the target named is T1, human wildtype CFTR (Homo sapiens, UniProt P13569).
T1 construct: expressed in transfected cells; host or cells: Fischer rat thyroid (FRT) cells
T1 sequence (P13569 whole entry): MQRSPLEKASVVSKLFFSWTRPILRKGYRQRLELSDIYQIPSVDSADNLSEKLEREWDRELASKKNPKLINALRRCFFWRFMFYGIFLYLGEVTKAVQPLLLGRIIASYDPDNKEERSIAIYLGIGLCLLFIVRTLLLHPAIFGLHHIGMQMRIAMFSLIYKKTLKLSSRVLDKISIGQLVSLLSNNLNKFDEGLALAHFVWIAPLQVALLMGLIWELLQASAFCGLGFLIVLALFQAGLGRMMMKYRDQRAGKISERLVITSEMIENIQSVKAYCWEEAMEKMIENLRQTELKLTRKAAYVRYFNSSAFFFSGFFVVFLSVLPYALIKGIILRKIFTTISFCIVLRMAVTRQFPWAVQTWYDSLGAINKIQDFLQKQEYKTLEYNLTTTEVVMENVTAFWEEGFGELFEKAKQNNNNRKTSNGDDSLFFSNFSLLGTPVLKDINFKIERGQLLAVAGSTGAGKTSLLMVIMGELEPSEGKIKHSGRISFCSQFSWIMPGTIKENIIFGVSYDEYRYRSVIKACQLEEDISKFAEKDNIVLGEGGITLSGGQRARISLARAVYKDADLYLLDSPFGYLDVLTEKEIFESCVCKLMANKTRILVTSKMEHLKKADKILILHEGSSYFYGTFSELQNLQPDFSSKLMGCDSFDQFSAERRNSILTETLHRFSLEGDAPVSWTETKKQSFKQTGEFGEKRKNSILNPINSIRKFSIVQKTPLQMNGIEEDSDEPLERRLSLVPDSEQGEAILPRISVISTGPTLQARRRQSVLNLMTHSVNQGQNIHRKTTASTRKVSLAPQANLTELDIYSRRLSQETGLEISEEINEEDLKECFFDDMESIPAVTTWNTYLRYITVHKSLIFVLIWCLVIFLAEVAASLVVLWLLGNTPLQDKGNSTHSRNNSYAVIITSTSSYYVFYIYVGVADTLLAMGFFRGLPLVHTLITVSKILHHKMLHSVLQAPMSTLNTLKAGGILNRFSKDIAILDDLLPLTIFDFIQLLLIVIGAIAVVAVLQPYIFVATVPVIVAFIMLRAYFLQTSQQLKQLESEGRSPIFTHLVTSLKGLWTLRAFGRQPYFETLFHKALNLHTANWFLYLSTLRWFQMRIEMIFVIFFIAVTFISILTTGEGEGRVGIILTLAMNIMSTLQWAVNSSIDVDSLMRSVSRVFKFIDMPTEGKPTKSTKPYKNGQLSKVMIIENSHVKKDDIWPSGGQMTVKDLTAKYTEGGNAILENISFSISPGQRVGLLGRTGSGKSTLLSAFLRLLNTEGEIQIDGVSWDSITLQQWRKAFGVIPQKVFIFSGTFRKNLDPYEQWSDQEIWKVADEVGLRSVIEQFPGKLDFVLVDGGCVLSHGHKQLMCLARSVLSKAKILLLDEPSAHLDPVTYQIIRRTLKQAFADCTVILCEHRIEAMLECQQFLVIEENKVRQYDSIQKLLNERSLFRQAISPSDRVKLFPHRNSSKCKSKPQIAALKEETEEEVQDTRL
Nature of the assay: Fluorescence platereader assay of CFTR-mediated iodide influx (YFP quenching) in FRT cells. The class given is cell-based. As to conditions: for inhibition at 5 µM / inhibition at 25 µM: FRT; for inhibition at 25 µM: read-out: % Inhibition at 25 μM; for pIC50: apparent IC50 from concentration-inhibition data, fluorescence platereader assay. Here is the method: A. Cell lines and compounds—Fischer rat thyroid (FRT) cells co-expressing human wildtype CFTR and the halide indicator YFP-H148Q/1152L were generated as described (see, e.g., Ma et al., J. Clin. Invest. 110:1651-1658 (2002)). Cells were plated in 96-well black-walled microplates (Corning Costar) at a density of 20,000 cells per well in Coon's modified F12 medium supplemented with 5% fetal calf serum, 2 mM L-glutamine, 100 U/mL penicillin, and 100 μg/ml streptomycin. Assays were performed at 48 h after plating the cells when the cells were just confluent. For some experiments, measurements were made using T84 human intestinal epithelial cells and for other experiments, measurements were obtained using primary cultures of human bronchial epithelial cells, which were obtained and grown essentially as previously described (see, e.g., 3 and 27).
B. Compound Screening—Assays were performed using an automated screening platform (Beckman) equipped with FLUOStar fluorescence platereaders (BMG Lab Technologies, Offenburg, Germany) as described (see Ma et al., supra). Each well of a 96-well plate containing FRT cells was washed 3 times in PBS (300 μL/wash), leaving 50 μL PBS. […] After 15 min, 96-well plates were transferred to a plate reader for fluorescence assay. Each well was assayed individually for CFTR-mediated iodide influx by recording fluorescence continuously (200 ms per point) for 2 s (baseline) and then for 10 s after rapid addition of 160 μL of isosmolar PBS in which 137 mM chloride was replaced by iodide. The initial rate of iodide influx was computed from fluorescence data by non-linear regression.
Collections of synthetic and natural compounds were screened according to the screening procedures described in Example 2. A cell-based fluorescence assay was used in which CFTR inhibitors were identified by reduced iodide influx in FRT cells co-expressing human CFTR and a YFP halide sensor. CFTR was maximally activated by a mixture of agonists having different activating mechanisms. Inhibition of iodide influx was observed as reduced YFP fluorescence quenching in response to rapid iodide addition to each well of 96-well plates. […]

[1] abbreviates: Table 2, screening, 5 μM, read-out: % Inhibition at 5 μM.
Setting [2] is: read-out: % inhibition at 25/5 μM (5 μM value), Table 1, 5 μM compound.

Consider `Cc1ccc(C2Nc3ccccc3-n3c(-c4ccccc4F)c4c(=O)n(C)c(=O)n(C)c4c32)cc1` (centres unmarked) [PPQ-237, 7,9-Dimethyl-11-(2-fluorophenyl)-6-(4-methylphenyl)-5,6-dihydro-pyrimido[4′,5′-3,4]pyrrolo[1,2-a]quinoxaline-8,10-(7H,9H)-dione], for which the inhibition at 5 µM under setting [1] is 20%. The inhibition at 25 µM (Table 2, screening) came out at 58%.
Taken in the same sequence, the figures for `Cc1ccc(C2Nc3ccccc3-n3c(-c4ccccc4)c4c(=O)n(C)c(=O)n(C)c4c32)cc1` (centres unmarked) were less than 10% and 38%.
As to `Cn1c(=O)c2c(-c3ccccc3F)n3c(c2n(C)c1=O)C(c1cccc(F)c1)Nc1ccccc1-3` (centres unmarked) [PPQ-230, 7,9-Dimethyl-11-(2-fluorophenyl)-6-(3-fluorophenyl)-5,6-dihydro-pyrimido[4′,5′-3,4]pyrrolo[1,2-a]quinoxaline-8,10-(7H,9H)-dione], the inhibition at 5 µM under setting [1] stood at 51%. For the same compound, the inhibition at 25 µM (Table 2, screening) came to 87%.
For `COc1cc(C2Nc3ccccc3-n3c(-c4ccccc4C)c4c(=O)n(C)c(=O)n(C)c4c32)ccc1O` (centres unmarked) [PPQ-227, 7,9-Dimethyl-11-(2-methylphenyl)-6-(3-methoxy-4-hydroxyphenyl)-5,6-dihydro-pyrimido[4′,5′-3,4]pyrrolo[1,2-a]quinoxaline-8,10-(7H,9H)-dione], the inhibition at 5 µM under setting [1] was determined as 10%. Where the note is “Table 2, screening”, the inhibition at 25 µM was 78%.
Taken in the same sequence, the figures for `Cn1c(=O)c2c(-c3ccccc3)n3c(c2n(C)c1=O)C(c1ccc(F)cc1)Nc1ccccc1-3` (centres unmarked) [PPQ-249, 7,9-Dimethyl-11-phenyl-6-(4-fluorophenyl)-5,6-dihydro-pyrimido[4′,5′-3,4]pyrrolo[1,2-a]quinoxaline-8,10-(7H,9H)-dione] were 21% and 64%.
Taken in the same sequence, the figures for `Cn1c(=O)c2c(-c3ccccc3)n3c(c2n(C)c1=O)C(c1cccc(O)c1O)Nc1ccccc1-3` (centres unmarked) were less than 10% and 38%.
The corresponding values for `COc1cc(C2Nc3ccccc3-n3c(-c4cccc(C)c4)c4c(=O)n(C)c(=O)n(C)c4c32)ccc1O` (centres unmarked) [PPQ-241, 7,9-Dimethyl-11-(3-methylphenyl)-6-(3-methoxy-4-hydroxyphenyl)-5,6-dihydro-pyrimido[4′,5′-3,4]pyrrolo[1,2-a]quinoxaline-8,10-(7H,9H)-dione] are 16% and 74%.
With `COc1ccc(-c2c3c(=O)n(C)c(=O)n(C)c3c3n2-c2ccccc2NC3c2cccc(F)c2)cc1` (centres unmarked), the inhibition at 5 µM under setting [1] was less than 10%. For the same compound, the inhibition at 25 µM (Table 2, screening) worked out at 37%.
For the compound `Cn1c(=O)c2c(-c3ccccc3)n3c(c2n(C)c1=O)C(c1cccc(O)c1)Nc1ccccc1-3` (centres unmarked) [PPQ-240, 7,9-Dimethyl-11-phenyl-6-(3-hydroxyphenyl)-5,6-dihydro-pyrimido[4′,5′-3,4]pyrrolo[1,2-a]quinoxaline-8,10-(7H,9H)-dione], under setting [1], the inhibition at 5 µM came to 30%. The inhibition at 25 µM (Table 2, screening) stood at 74%.
As to `Cc1cccc(C2Nc3ccccc3-n3c(-c4ccccc4C)c4c(=O)n(C)c(=O)n(C)c4c32)c1` (centres unmarked) [PPQ-217, 7,9-Dimethyl-11-(2-methylphenyl)-6-(3-methylphenyl)-5,6-dihydro-pyrimido[4′,5′-3,4]pyrrolo[1,2-a]quinoxaline-8,10-(7H,9H)-dione], the pIC50 (usually the IC50 on a negative log10 scale, so that one unit is a factor of ten) was 5.52. In addition, the inhibition at 5 µM under setting [2] turned out to be 46%. For the same compound, under setting [1], the inhibition at 5 µM came out at 46%. The inhibition at 25 µM (Table 2, screening) was more than 95%.
In the case of `Cc1cccc(-c2c3c(=O)n(C)c(=O)n(C)c3c3n2-c2ccccc2NC3c2cccs2)c1` (centres unmarked) [PPQ-114, 7,9-Dimethyl-11-(3-methylphenyl)-6-(thienyl-2-yl)-5,6-dihydro-pyrimido[4′,5′-3,4]pyrrolo[1,2-a]quinoxaline-8,10-(7H,9H)-dione], the inhibition at 5 µM under setting [1] was 29%. For the same compound, the inhibition at 25 µM (Table 2, screening) came to 79%.
Take `Cn1c(=O)c2c(-c3ccccc3F)n3c(c2n(C)c1=O)C(c1ccc(F)cc1F)Nc1ccccc1-3` (centres unmarked) [PPQ-244, 7,9-Dimethyl-11-(2-fluorophenyl)-6-(2,4-difluorophenyl)-5,6-dihydro-pyrimido[4′,5′-3,4]pyrrolo[1,2-a]quinoxaline-8,10-(7H,9H)-dione]: the inhibition at 5 µM under setting [1] is 32%. In addition, the inhibition at 25 µM (Table 2, screening) came out at 56%.
Taken in the same sequence, the figures for `Cc1ccccc1-c1c2c(=O)n(C)c(=O)n(C)c2c2n1-c1ccccc1NC2c1ccc(O)c(O)c1` (centres unmarked) were less than 10% and 38%.
The corresponding values for `COc1ccc(-c2c3c(=O)n(C)c(=O)n(C)c3c3n2-c2ccccc2NC3c2cccs2)cc1` (centres unmarked) are less than 10% and 34%.
Taken in the same sequence, the figures for `Cc1cc2c(cc1C)-n1c(-c3ccccc3)c3c(=O)n(C)c(=O)n(C)c3c1C(c1cccs1)N2` (centres unmarked) [PPQ-115, 2,3,7,9-Tetramethyl-11-phenyl-6-(thienyl-2-yl)-5,6-dihydro-pyrimido[4′,5′-3,4]pyrrolo[1,2-a]quinoxaline-8,10-(7H,9H)-dione] were 14% and 61%.
With `Cn1c(=O)c2c(-c3ccccc3)n3c(c2n(C)c1=O)C(c1ccc2c(c1)OCO2)Nc1ccccc1-3` (centres unmarked) [PPQ-301, 7,9-Dimethyl-11-phenyl-6-(1,3-benzodioxol-5-yl)-5,6-dihydro-pyrimido[4′,5′-3,4]pyrrolo[1,2-a]quinoxaline-8,10-(7H,9H)-dione], the inhibition at 5 µM under setting [1] worked out at 28%. In addition, where the note is “Table 2, screening”, the inhibition at 25 µM came out at 58%.
Taken in the same sequence, the figures for `Cn1c(=O)c2c(-c3ccccc3)n3c(c2n(C)c1=O)C(c1ccc(O)cc1O)Nc1ccccc1-3` (centres unmarked) were less than 10% and 35%.
Taken in the same sequence, the figures for `Cc1ccc(-c2c3c(=O)n(C)c(=O)n(C)c3c3n2-c2ccccc2NC3c2cccc(F)c2F)cc1` (centres unmarked) were 27% and 31%.
The corresponding values for `Cc1ccccc1-c1c2c(=O)n(C)c(=O)n(C)c2c2n1-c1ccccc1NC2c1cccs1` (centres unmarked) [PPQ-117, 7,9-Dimethyl-11-(2-methylphenyl)-6-(thienyl-2-yl)-5,6-dihydro-pyrimido[4′,5′-3,4]pyrrolo[1,2-a]quinoxaline-8,10-(7H,9H)-dione] are 19% and 67%.
In the case of `Cn1c(=O)c2c(-c3ccccc3F)n3c(c2n(C)c1=O)C(c1ccc(Cl)cc1)Nc1ccccc1-3` (centres unmarked), the inhibition at 5 µM under setting [1] is less than 10%. Besides, the inhibition at 25 µM (Table 2, screening) stood at 44%.
In the case of `COc1cccc(C2Nc3ccccc3-n3c(-c4cccc(C)c4)c4c(=O)n(C)c(=O)n(C)c4c32)c1` (centres unmarked) [PPQ-210, 7,9-Dimethyl-11-(3-methylphenyl)-6-(3-methoxyphenyl)-5,6-dihydro-pyrimido[4′,5′-3,4]pyrrolo[1,2-a]quinoxaline-8,10-(7H,9H)-dione], the pIC50 was 5.77. Further, the inhibition at 5 µM under setting [2] turned out to be 73%. Also, the inhibition at 5 µM under setting [1] came to 73%. In addition, the inhibition at 25 µM (Table 2, screening) is more than 95%.
Regarding `COc1cccc(C2Nc3ccccc3-n3c(-c4ccccc4F)c4c(=O)n(C)c(=O)n(C)c4c32)c1` (centres unmarked) [PPQ-211, 7,9-Dimethyl-11-(2-fluorophenyl)-6-(3-methoxyphenyl)-5,6-dihydro-pyrimido[4′,5′-3,4]pyrrolo[1,2-a]quinoxaline-8,10-(7H,9H)-dione], the pIC50 is 5.70. In addition, the inhibition at 5 µM under setting [2] stood at 62%. Further, the inhibition at 5 µM under setting [1] was found to be 62%. In addition, the inhibition at 25 µM (Table 2, screening) is more than 95%.
Turning to `COc1ccc(-c2c3c(=O)n(C)c(=O)n(C)c3c3n2-c2ccccc2NC3c2ccc(C)o2)cc1` (centres unmarked) [PPQ-109, 7,9-Dimethyl-11-(4-methoxyphenyl)-6-(5-methylfuran-2-yl)-5,6-dihydro-pyrimido[4′,5′-3,4]pyrrolo[1,2-a]quinoxaline-8,10-(7H,9H)-dione], the inhibition at 5 µM under setting [1] was determined as 12%. Further, the inhibition at 25 µM (Table 2, screening) is 68%.
Taken in the same sequence, the figures for `COc1cc(C2Nc3ccccc3-n3c(-c4ccccc4)c4c(=O)n(C)c(=O)n(C)c4c32)ccc1O` (centres unmarked) [PPQ-248, 7,9-Dimethyl-11-phenyl-6-(3-methoxy-4-hydroxyphenyl)-5,6-dihydro-pyrimido[4′,5′-3,4]pyrrolo[1,2-a]quinoxaline-8,10-(7H,9H)-dione] were 5% and 64%.
For `Cn1c(=O)c2c(-c3ccccc3)n3c(c2n(C)c1=O)C(c1ccccc1)Nc1ccccc1-3` (centres unmarked) [PPQ-206, 7,9-Dimethyl-11-phenyl-6-phenyl-5,6-dihydro-pyrimido[4′,5′-3,4]pyrrolo[1,2-a]quinoxaline-8,10-(7H,9H)-dione], the pIC50 is 5.60.
Take `Cn1c(=O)c2c(-c3ccccc3)n3c(c2n(C)c1=O)C(c1cc([N+](=O)[O-])ccc1O)Nc1ccccc1-3` (centres unmarked): the inhibition at 5 µM under setting [1] was 12%. In addition, where the note is “Table 2, screening”, the inhibition at 25 µM is 40%.
Taken in the same sequence, the figures for `Cc1cc2c(cc1C)-n1c(-c3ccccc3F)c3c(=O)n(C)c(=O)n(C)c3c1C(c1ccco1)N2` (centres unmarked) were 41% and 44%.
